Measured values reported in US20120165334A1, “Indole/Benzimidazole Compounds as mTOR Kinase Inhibitors” (AMGEN INC., priority 2009, published 2012).
Where two headings read alike, the source gives them in different places.

Assays:
[1] = biological target: T1, mTOR (Homo sapiens, UniProt P42345); assay: mTOR LanthaScreen (TR-FRET, phosphorylation of 4EBP1); format: biochemical; conditions: read-out: AA11016+++mTor_MA_IC50_IP
T1 construct: 2.5 μl of 0.6 μg/ml of mTOR Enzyme (Amgen) was added to rows 1-23
Procedure: The mTOR LanthaScreen is a TR-FRET assay measuring the phosphorylation of mTOR's substrate 4EBP1. 384 well compound plates were prepared containing 1 μl of compound per well starting at 5 mM and diluted 1:2 across the row, resulting in a 22 well serial dilution.
The assay was conducted on the PerkinElmer® FlexDrop PLUS. A 5 μl mix of 800 nM GFP-4E-BP1 (Invitrogen, PV4759) and 20 μM ATP (Amgen) was added to rows 1-24. 2.5 μl of 0.6 μg/ml of mTOR Enzyme (Amgen) was added to rows 1-23. 2.5 μl of assay buffer was added to row 24 for the low control. […] The final concentrations in the assay reagents were 400 nM GFP-4E-BP1, 10 μM of ATP and 0.15 μg/ml of mTOR enzyme. The compound, enzyme, and substrate incubate for 90 minutes.

[2] = system: phosphorylation of Akt at Serine 473; assay: pAkt AlphaScreen in U87 MG cells; format: cell-based; conditions: read-out: AA11809+++pAKT_U87_IC50_IP
Procedure: The pAkt AlphaScreen assay determines whether there is phosphorylation of Akt at Serine 473 by recruitment of a phosphospecific antibody. This assay was performed using U87 MG cells. […] The cells were maintained weekly using 0.05% Trypsin (Gibco, 25300-054) and replated in 150 mm TC—Treated Culture Dishes (Corning, 430599).
The first day of the assay, the adherent cells were trypsinized, media was added to the loose cells and cells were mixed to a homogenous mixture. 0.5 ml of the homogenous mixture was counted on the Beckman Coulter® Vi-CELL™ XR. 50 frames of cells were counted and the number of viable cells was determined. The cells were then diluted to 0.25 million cells per ml, and centrifuged at 200 rcf for 5 minutes. The media was removed and the cells were reconstituted in fresh media for plating. The cells were plated at 20 μl per well on the PerkinElmer® FlexDrop PLUS in Low Volume 384 Well White Tissue Culture Plates (Corning, 3826) with a final cell density of 5K cells per well. The plates were incubated overnight at 37° Celsius, 5% CO2.
On the second day, the compound plates were prepared, the cells were treated with compound and the pAkt reaction mix was added to the cell lysate. 384 well compound plates were prepared by Amgen's Sample Bank containing […] of compound per well starting at 5 mM and diluted 1:2 across the row, resulting in a 22 well serial dilution. 39 μl of growth media was added to the compound plate in rows 1-22 using the PerkinElmer® FlexDrop PLUS resulting in a DMSO concentration of 2.5%. The control columns were added manually; 40 μl of 2.5% DMSO (Sigma, D4540-100 ml) in growth media was added to the plate for the high control and 40 μl of 50 μM of AMG2203766 with 2.5% DMSO was added to the plate as the low control. The cell plates and diluted compound plates were put onto the VELOCITY1 1™ VPREP™ 384 ST where the compound plate was mixed and 5 μl of serially diluted compound or controls was added to the cell plate. […] The cell plates were then incubated with compound for two hours at 37° Celsius, 5% CO2. After two hours, the media in the cell plates was aspirated using the BioTek® ELx405HT plate washer removing the majority of media and compound without disturbing the adherent U87 cells. The following assay reagents are components of the SureFire Akt (Ser 473) Phosphorylation 50K Point Kit (TGR BioSciences, TGRAS50K) and an IgG Detection Kit (PerkinElmer, 6760617R). […] The plates were then incubated at room temperature on a shaker for ten minutes. The AlphaScreen reaction was prepared under low light conditions (subdued or green light) including p-Akt (Ser 473) Reaction Buffer, Dilution Buffer, Activation Buffer, Acceptor Beads and Donor Beads at a ratio of 40:20:10:1:1 respectively. The AlphaScreen reaction was added to the cell lysate at 6 μl per well using the PerkinElmer® FlexDrop PLUS. The plates were placed in a humid environment to reduce edge effects and incubated overnight at room temperature with restricted air flow in the dark.
On the final day of the experiment, the plates were read on the PerkinElmer® EnVision™ 2103 Multilable Reader using the standard AlphaScreen readout. The POC is calculated and the data is analyzed to report the IC50 IP for pAkt at Serine 473.

[3] = biological target: PI3Ka (Homo sapiens, UniProt P42336); assay: PI3Ka Alpha assay; format: biochemical; conditions: the values are: IC50
Sequence of PI3Ka (P42336 whole entry): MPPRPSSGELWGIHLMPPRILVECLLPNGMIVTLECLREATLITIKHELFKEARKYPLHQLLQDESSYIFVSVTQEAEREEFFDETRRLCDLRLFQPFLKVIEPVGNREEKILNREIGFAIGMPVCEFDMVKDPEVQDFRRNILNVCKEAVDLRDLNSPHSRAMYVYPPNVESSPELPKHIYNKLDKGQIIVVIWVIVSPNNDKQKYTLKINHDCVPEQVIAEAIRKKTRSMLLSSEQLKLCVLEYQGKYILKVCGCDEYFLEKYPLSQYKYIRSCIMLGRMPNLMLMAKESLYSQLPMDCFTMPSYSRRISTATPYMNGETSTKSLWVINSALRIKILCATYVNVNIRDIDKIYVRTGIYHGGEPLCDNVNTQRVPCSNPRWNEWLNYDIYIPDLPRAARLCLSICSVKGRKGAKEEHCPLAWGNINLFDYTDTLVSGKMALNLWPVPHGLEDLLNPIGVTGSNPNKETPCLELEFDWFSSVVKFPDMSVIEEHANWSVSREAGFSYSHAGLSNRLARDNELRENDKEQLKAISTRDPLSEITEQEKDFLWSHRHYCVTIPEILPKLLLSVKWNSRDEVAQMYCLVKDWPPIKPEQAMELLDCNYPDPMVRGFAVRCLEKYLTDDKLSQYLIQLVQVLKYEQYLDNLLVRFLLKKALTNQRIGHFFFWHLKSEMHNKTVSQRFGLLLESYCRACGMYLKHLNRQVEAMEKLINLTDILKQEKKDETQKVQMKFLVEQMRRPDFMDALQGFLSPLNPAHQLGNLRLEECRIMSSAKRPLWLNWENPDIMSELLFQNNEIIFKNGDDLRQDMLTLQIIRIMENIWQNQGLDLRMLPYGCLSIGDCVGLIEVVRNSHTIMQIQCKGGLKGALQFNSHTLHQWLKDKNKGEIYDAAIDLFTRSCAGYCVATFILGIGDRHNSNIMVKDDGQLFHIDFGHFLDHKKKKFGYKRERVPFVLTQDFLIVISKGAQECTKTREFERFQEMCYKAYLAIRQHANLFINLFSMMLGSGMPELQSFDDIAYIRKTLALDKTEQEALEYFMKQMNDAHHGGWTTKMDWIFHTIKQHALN
Sequence of PI3Ka (P27986 whole entry partner): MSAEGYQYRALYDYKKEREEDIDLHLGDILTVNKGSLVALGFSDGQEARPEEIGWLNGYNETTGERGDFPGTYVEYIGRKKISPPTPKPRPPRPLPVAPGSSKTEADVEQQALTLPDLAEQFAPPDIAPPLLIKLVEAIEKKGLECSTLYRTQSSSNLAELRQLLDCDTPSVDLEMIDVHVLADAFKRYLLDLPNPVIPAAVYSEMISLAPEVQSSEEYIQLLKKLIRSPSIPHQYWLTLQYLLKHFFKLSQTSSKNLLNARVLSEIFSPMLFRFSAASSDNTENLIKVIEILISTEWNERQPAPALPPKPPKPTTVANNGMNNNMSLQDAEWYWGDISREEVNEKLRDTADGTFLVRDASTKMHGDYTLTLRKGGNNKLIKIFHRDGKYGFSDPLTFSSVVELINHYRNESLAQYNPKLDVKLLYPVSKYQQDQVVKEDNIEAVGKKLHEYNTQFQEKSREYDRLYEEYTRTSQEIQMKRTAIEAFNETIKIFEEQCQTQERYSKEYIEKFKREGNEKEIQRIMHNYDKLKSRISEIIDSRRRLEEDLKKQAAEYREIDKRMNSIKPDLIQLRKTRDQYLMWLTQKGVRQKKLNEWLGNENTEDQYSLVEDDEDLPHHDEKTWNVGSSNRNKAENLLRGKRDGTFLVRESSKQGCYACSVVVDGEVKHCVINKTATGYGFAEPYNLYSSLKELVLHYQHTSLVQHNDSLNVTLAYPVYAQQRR

[4] = U87 MG cells, two hours with compound
[5] = Homo sapiens, U-87 MG, 2 h, U87 MG cells, two hours with compound

1-(4-amino-6-methyl-1,3,5-triazin-2-yl)-N-cyclopropyl-1H-benzimidazol-2-amine [Cpd 61]
IC50 [1]: 10800 nM
IC50 [2, 4]: 1040 nM
AA12047+++PI3Ka Alpha IC50 IP [3]: 3830 nM

1-(4-amino-6-methyl-1,3,5-triazin-2-yl)-N-(6-methoxy-3-pyridinyl)-1H-benzimidazol-2-amine [Cpd 151]
IC50 [1]: 124 nM
IC50 [2, 4]: 88.9 nM
AA12047+++PI3Ka Alpha IC50 IP [3]: 4550 nM

1-(4-methyl-6-((2-(4-morpholinyl)ethyl)amino)-1,3,5-triazin-2-yl)-N-1H-pyrazol-3-yl-1H-benzimidazol-2-amine [Cpd 156]
IC50 [1]: 183 nM
IC50 [2, 4]: 54.7 nM
AA12047+++PI3Ka Alpha IC50 IP [3]: 14.6 nM

CNc1nc(C)nc(-n2c(Nc3cc[nH]n3)nc3cc(C)c(C)cc32)n1 [Cpd 138]
IC50 [1]: 38.7 nM
IC50 [2, 5]: 158 nM
AA12047+++PI3Ka Alpha IC50 IP [3]: 1390 nM

1-(4-((1-(4-amino-6-methyl-1,3,5-triazin-2-yl)-1H-benzimidazol-2-yl)amino)phenyl)-3-(3,5-dichlorophenyl)thiourea [Cpd 108]
IC50 [1]: 2290 nM
IC50 [2, 4]: 1070 nM
AA12047+++PI3Ka Alpha IC50 IP [3]: 470 nM

1-(4-amino-6-methyl-1,3,5-triazin-2-yl)-N-1H-pyrazol-5-yl-5-(4-pyridinyl)-1H-benzimidazol-2-amine [Cpd 144]
IC50 [1]: 66.6 nM
IC50 [2, 4]: 125 nM
AA12047+++PI3Ka Alpha IC50 IP [3]: 7260 nM

4-((1-(4-amino-6-methyl-1,3,5-triazin-2-yl)-1H-benzimidazol-2-yl)amino)-N-4-pyridinylbenzamide [Cpd 157]
IC50 [1]: 194 nM
IC50 [2, 4]: 767 nM
AA12047+++PI3Ka Alpha IC50 IP [3]: 31800 nM

CNC(=O)Nc1ccc(Nc2nc3ccccc3n2-c2nc(C)nc(NCC#N)n2)cc1 [Cpd 111]
IC50 [1]: 0.765 nM
IC50 [2, 5]: 69.9 nM
AA12047+++PI3Ka Alpha IC50 IP [3]: 52.8 nM

1-(4-amino-6-methyl-1,3,5-triazin-2-yl)-N-(1-(4-morpholinylcarbonyl)-1H-pyrazol-4-yl)-1H-benzimidazol-2-amine [Cpd 198]
AA12047+++PI3Ka Alpha IC50 IP [3]: 2550 nM

Cc1nc(N)nc(-n2c(Nc3ccc(NC(=O)Nc4ccncc4)cc3)nc3ccccc32)n1 [Cpd 115]
IC50 [1]: 4.4 nM
IC50 [2, 5]: 132 nM
AA12047+++PI3Ka Alpha IC50 IP [3]: 7.31 nM

Cc1nc(N)nc(-n2c(Nc3cccc(O)c3)nc3ccc(C(=O)O)cc32)n1 [Cpd 2, 1-(4-amino-6-methyl-1,3,5-triazin-2-yl)-2-((3-hydroxyphenyl)amino)-1H-benzimidazole-6-carboxylic acid]
IC50 [1]: 1.38 nM
IC50 [2, 5]: 224 nM

Cc1nc(N)nc(-n2c(Nc3cnn(C(=O)N4CCOCC4)c3)nc3ccccc32)n1 [Cpd 201]
IC50 [2, 5]: 652 nM
AA12047+++PI3Ka Alpha IC50 IP [3]: 3520 nM

1-(4-((cyclopropylmethyl)amino)-6-methyl-1,3,5-triazin-2-yl)-N-1H-pyrazol-3-yl-1H-benzimidazol-2-amine [Cpd 170]
IC50 [1]: 1170 nM
IC50 [2, 4]: 1680 nM
AA12047+++PI3Ka Alpha IC50 IP [3]: 1370 nM

3-((4-methyl-6-(2-(1H-pyrazol-3-ylamino)-1H-benzimidazol-1-yl)-1,3,5-triazin-2-yl)amino)propanenitrile [Cpd 141]
IC50 [2, 4]: 203 nM

Cc1nc(N)nc(-n2c(Nc3cc(O)cc(O)c3)nc3ccccc32)n1 [Cpd 1, 5-((1-(4-amino-6-methyl-1,3,5-triazin-2-yl)-1H-benzimidazol-2-yl)amino)-1,3-benzenediol]
IC50 [1]: 0.269 nM
IC50 ([2]; Homo sapiens, U-87 MG, 2 h): 4.96 nM
AA12047+++PI3Ka Alpha IC50 IP [3]: 0.646 nM

Cc1nc(N)nc(-n2c(Nc3ccn[nH]3)nc3cc(F)c(F)cc32)n1 [Cpd 9, 1-(4-amino-6-methyl-1,3,5-triazin-2-yl)-5,6-difluoro-N-1H-pyrazol-5-yl-1H-benzimidazol-2-amine]
IC50 [1]: 24.3 nM
IC50 ([2]; Homo sapiens, U-87 MG, 2 h): 44.6 nM
AA12047+++PI3Ka Alpha IC50 IP [3]: 485 nM
